Measured values published in PubChem BioAssay AID192 (DTP/NCI, 2004).
Values joined by “and” are separate entries in the source; they are usually repeats but may differ in a detail not shown here. Equal entries are not always repeated. Inconclusive results and toxic doses are left out.

Test system: BDF1 mice, B16 melanoma ip, median survival T/C
Experiment: NCI In Vivo Anticancer Drug Screen. Data for tumor model B16 Melanoma (intraperitoneal) in B6D2F1 (BDF1) mice
Conditions: endpoint: median survival time, higher = longer survival
Summary of the method: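 In this screen, activity was judged from survival or tumor size in treated versus vehicle-treated tumor-bearing mice, reported as T/C.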

[1] = dose: 1.25 mg/kg/injection, schedule: Q01DX009 (ip), vehicle: saline with Tween-80
[2] = dose: 2.5 mg/kg/injection, schedule: Q01DX009 (ip), vehicle: saline with Tween-80
[3] = dose: 12.5 mg/kg/injection, schedule: Q01DX009 (ip), vehicle: Klucel (hydroxypropylcellulose) (HPC)
[4] = dose: 25.0 mg/kg/injection, schedule: Q01DX009 (ip), vehicle: Klucel (hydroxypropylcellulose) (HPC)
[5] = dose: 50.0 mg/kg/injection, schedule: Q01DX009 (ip), vehicle: Klucel (hydroxypropylcellulose) (HPC)
[6] = dose: 2.0 mg/kg/injection, schedule: Q01DX009 (ip), vehicle: saline
[7] = dose: 100.0 mg/kg/injection, schedule: Q01DX009 (ip), vehicle: saline
[8] = dose: 200.0 mg/kg/injection, schedule: Q01DX009 (ip), vehicle: saline
[9] = dose: 400.0 mg/kg/injection, schedule: Q01DX009 (ip), vehicle: saline
[10] = dose: 100.0 mg/kg/injection, schedule: Q01DX009 (ip), vehicle: Klucel (hydroxypropylcellulose) (HPC)
[11] = dose: 12.5 mg/kg/injection, schedule: Q01DX009 (ip), vehicle: saline
[12] = dose: 25.0 mg/kg/injection, schedule: Q01DX009 (ip), vehicle: saline
[13] = dose: 50.0 mg/kg/injection, schedule: Q01DX009 (ip), vehicle: saline
[14] = dose: 30.0 mg/kg/injection, schedule: Q01DX009 (ip), vehicle: saline
[15] = dose: 50.0 mg/kg/injection, schedule: Q01DX009 (ip), vehicle: carboxymethylcellulose (CMC)

Cc1cc(O)c(N=Nc2ccc(C(=O)O)cc2)cc1C
T/C (dose: 12.5 mg/kg/injection, schedule: Q01DX009 (ip), vehicle: suspension in saline): 109 % of control
T/C (dose: 25.0 mg/kg/injection, schedule: Q01DX009 (ip), vehicle: suspension in saline): 106 % of control
T/C (dose: 50.0 mg/kg/injection, schedule: Q01DX009 (ip), vehicle: suspension in saline): 109 % of control
T/C (dose: 100.0 mg/kg/injection, schedule: Q01DX009 (ip), vehicle: suspension in saline): 90 % of control
T/C (dose: 200.0 mg/kg/injection, schedule: Q01DX009 (ip), vehicle: suspension in saline): 87 % of control

CC12CCC(O)CC1CCC1C2CCC2(C)C(c3ccc(=O)oc3)CCC12O (stereo not given)
T/C (dose: 0.31 mg/kg/injection, schedule: Q01DX009 (ip), vehicle: saline with Tween-80): 98 % of control
T/C (dose: 0.62 mg/kg/injection, schedule: Q01DX009 (ip), vehicle: saline with Tween-80): 94 % of control
T/C [1]: 99 % of control
T/C [2]: 99 % of control

O=C(Nc1ccccc1O)/C(Cl)=C/Cl
T/C [3]: 92 % of control
T/C [4]: 93 % of control
T/C [5]: 90 % of control

COC(C(=O)C(O)C(C)O)C1Cc2cc3cc(OC4CC(OC(C)=O)C(OC5CC(O)C(OC)C(C)O5)C(C)O4)cc(O)c3c(O)c2C(=O)C1OC1CC(OC2CC(OC3CC(C)(O)C(OC(=O)C(C)C)C(C)O3)C(O)C(C)O2)C(O)C(C)O1 (stereo not given)
T/C (dose: 0.25 mg/kg/injection, schedule: Q01DX009 (ip), vehicle: saline with Tween-80): 158 % of control
T/C (dose: 0.5 mg/kg/injection, schedule: Q01DX009 (ip), vehicle: saline): 154 % of control and 170 % of control
T/C (dose: 1.0 mg/kg/injection, schedule: Q01DX009 (ip), vehicle: saline): 173 % of control and 183 % of control
T/C [6]: 173 % of control and 178 % of control

NCCS(=O)(=O)O
T/C [7]: 105 % of control
T/C [8]: 107 % of control
T/C [9]: 110 % of control
T/C (dose: 800.0 mg/kg/injection, schedule: Q01DX009 (ip), vehicle: saline): 102 % of control

CCCCCCCCCCCCNC(=O)Nc1ccc(C)cc1C
T/C [10]: 92 % of control
T/C (dose: 200.0 mg/kg/injection, schedule: Q01DX009 (ip), vehicle: Klucel (hydroxypropylcellulose) (HPC)): 96 % of control

O=c1[nH]cc(F)c(=O)[nH]1.[Tl]
T/C (dose: 1.25 mg/kg/injection, schedule: Q01DX009 (ip), vehicle: water): 95 % of control
T/C (dose: 2.5 mg/kg/injection, schedule: Q01DX009 (ip), vehicle: water): 100 % of control
T/C (dose: 5.0 mg/kg/injection, schedule: Q01DX009 (ip), vehicle: water): 102 % of control
T/C (dose: 10.0 mg/kg/injection, schedule: Q01DX009 (ip), vehicle: water): 113 % of control

Nc1cccs1
T/C [11]: 108 % of control
T/C [12]: 99 % of control
T/C [13]: 94 % of control

CN[C@@H]1[C@H](O)[C@H](NC)[C@H]2O[C@@]3(O)C(=O)C[C@@H](C)O[C@H]3O[C@@H]2[C@H]1O
T/C [7]: 108 % of control
T/C [8]: 103 % of control
T/C [9]: 113 % of control

NC(Cc1cc(Cl)c(O)c(Cl)c1)C(=O)O (stereo not given)
T/C [7]: 94 % of control
T/C (dose: 150.0 mg/kg/injection, schedule: Q01DX009 (ip), vehicle: saline): 100 % of control
T/C [8]: 98 % of control

O=NN(CCBr)C(=O)NC1CCCCC1
T/C (dose: 100.0 mg/kg/injection, schedule: Q01DX009 (ip), vehicle: gum acacia): 105 % of control
T/C (dose: 200.0 mg/kg/injection, schedule: Q01DX009 (ip), vehicle: gum acacia): 102 % of control
T/C (dose: 400.0 mg/kg/injection, schedule: Q01DX009 (ip), vehicle: gum acacia): 90 % of control

C=C(C)C(=O)O[C@H]1[C@H]2[C@H](OC(=O)[C@H]2C)[C@H](O)[C@@H](C)[C@@H]2C=CC(=O)[C@]21C
T/C (dose: 7.5 mg/kg/injection, schedule: Q01DX009 (ip), vehicle: saline): 100 % of control
T/C (dose: 15.0 mg/kg/injection, schedule: Q01DX009 (ip), vehicle: saline with Tween-80): 98 % of control
T/C (dose: 15.0 mg/kg/injection, schedule: Q01DX009 (ip), vehicle: saline): 106 % of control
T/C (dose: 30.0 mg/kg/injection, schedule: Q01DX009 (ip), vehicle: saline with Tween-80): 114 % of control
T/C [14]: 117 % of control
T/C (dose: 60.0 mg/kg/injection, schedule: Q01DX009 (ip), vehicle: saline with Tween-80): 119 % of control

O=C(O)/C=C\C(=O)Nc1ccccn1
T/C (dose: 5.0 mg/kg/injection, schedule: Q01DX009 (ip), vehicle: saline): 100 % of control
T/C (dose: 10.0 mg/kg/injection, schedule: Q01DX009 (ip), vehicle: saline): 100 % of control
T/C [14]: 112 % of control
T/C (dose: 60.0 mg/kg/injection, schedule: Q01DX009 (ip), vehicle: saline): 109 % of control

CCCC1(CCC)CN(CO)C1=O
T/C [11]: 100 % of control
T/C [12]: 100 % of control
T/C [13]: 106 % of control
T/C [7]: 111 % of control
T/C (dose: 200.0 mg/kg/injection, schedule: Q04DX003 (ip), vehicle: saline): 91 % of control

CCOC(=O)c1[nH]cnc1/N=N/N(C)CCO
T/C (dose: 12.5 mg/kg/injection, schedule: Q01DX009 (ip), vehicle: carboxymethylcellulose (CMC)): 104 % of control
T/C (dose: 25.0 mg/kg/injection, schedule: Q01DX009 (ip), vehicle: carboxymethylcellulose (CMC)): 118 % of control
T/C [15]: 95 % of control
T/C (dose: 100.0 mg/kg/injection, schedule: Q01DX009 (ip), vehicle: carboxymethylcellulose (CMC)): 100 % of control
T/C (dose: 200.0 mg/kg/injection, schedule: Q01DX009 (ip), vehicle: carboxymethylcellulose (CMC)): 113 % of control

C=C(C)C(=O)OC1CCC2(C)C(CCC3C2CCC2(C)C(c4ccc(=O)oc4)CC4OC432)C1 (stereo not given)
T/C [1]: 100 % of control
T/C [2]: 94 % of control
T/C (dose: 5.0 mg/kg/injection, schedule: Q01DX009 (ip), vehicle: saline with Tween-80): 96 % of control
T/C (dose: 10.0 mg/kg/injection, schedule: Q01DX009 (ip), vehicle: saline with Tween-80): 107 % of control
T/C (dose: 20.0 mg/kg/injection, schedule: Q01DX009 (ip), vehicle: saline with Tween-80): 102 % of control

CN(C)N=Nc1ccc(S(N)(=O)=O)cc1
T/C [4]: 116 % of control
T/C [5]: 111 % of control
T/C [10]: 98 % of control

Cc1cc(=O)c2c(=O)[nH][nH]c2[nH]1
T/C (dose: 50.0 mg/kg/injection, schedule: Q01DX009 (ip), vehicle: saline with Tween-80): 100 % of control
T/C (dose: 100.0 mg/kg/injection, schedule: Q01DX009 (ip), vehicle: saline with Tween-80): 95 % of control
T/C (dose: 200.0 mg/kg/injection, schedule: Q01DX009 (ip), vehicle: saline with Tween-80): 88 % of control

CCOC1=CCN(S(=O)(=O)c2ccc(C)cc2)c2ccc(OC)cc21
T/C (dose: 100.0 mg/kg/injection, schedule: Q04DX003 (ip), vehicle: Klucel (hydroxypropylcellulose) (HPC)): 102 % of control
T/C (dose: 200.0 mg/kg/injection, schedule: Q04DX003 (ip), vehicle: Klucel (hydroxypropylcellulose) (HPC)): 104 % of control
T/C (dose: 400.0 mg/kg/injection, schedule: Q04DX003 (ip), vehicle: Klucel (hydroxypropylcellulose) (HPC)): 94 % of control

C=C1C(C)C2C(Cc3ccccc3)NC(=O)C23C(OC(C)=O)C=CC(C)(O)C(=O)C(C)C/C=C/C3C1O (stereo not given)
T/C (dose: 0.63 mg/kg/injection, schedule: Q01DX009 (ip), vehicle: Klucel (hydroxypropylcellulose) (HPC)): 103 % of control
T/C (dose: 1.25 mg/kg/injection, schedule: Q01DX009 (ip), vehicle: Klucel (hydroxypropylcellulose) (HPC)): 94 % of control and 114 % of control
T/C (dose: 2.5 mg/kg/injection, schedule: Q01DX009 (ip), vehicle: Klucel (hydroxypropylcellulose) (HPC)): 100 % of control and 114 % of control
T/C (dose: 5.0 mg/kg/injection, schedule: Q01DX009 (ip), vehicle: Klucel (hydroxypropylcellulose) (HPC)): 108 % of control and 112 % of control

CN(/N=N/c1nc[nH]c1C(N)=O)C1CCCCC1
T/C [15]: 123 % of control

O=C(NCCCN1CC1)C(=O)NCCCN1CC1
T/C (dose: 1.56 mg/kg/injection, schedule: Q01DX009 (ip), vehicle: saline): 165 % of control
T/C (dose: 3.13 mg/kg/injection, schedule: Q01DX009 (ip), vehicle: saline): 194 % of control
T/C (dose: 6.25 mg/kg/injection, schedule: Q01DX009 (ip), vehicle: saline): 96 % of control

O=C(O)c1[nH]c(=O)[nH]c(=O)c1F
T/C [6]: 92 % of control
T/C (dose: 4.0 mg/kg/injection, schedule: Q01DX009 (ip), vehicle: saline): 95 % of control

CC1(S)CCC2CC1C2(C)C (stereo not given)
T/C [3]: 94 % of control
T/C [4]: 94 % of control
T/C [5]: 89 % of control
